From PubChem BioAssay (NCI)
Several values for one entry are separate records, joined by “and”; a condition that tells them apart may be missing. Equal values may be shown once.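 Five concentrations, 48 hours, 96-well plates. Abbreviation: GI50, concentration required for 50% inhibition of growth. The concentration for full growth arrest is given as TGI.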

Experiments:
Test in all cases: inhibition of tumour cell growth, NCI panel, 48 h
A549 NSCLC = test system: A549 NSCLC
NCI-H460 lung = test system: NCI-H460 lung
MOLT-4 leukemia = test system: MOLT-4 leukemia
PC-3 prostate = test system: PC-3 prostate
DU-145 prostate = test system: DU-145 prostate
NCI-H226 lung = test system: NCI-H226 lung
TK-10 renal = test system: TK-10 renal
HOP-62 NSCLC = test system: HOP-62 NSCLC
SW-620 colon = test system: SW-620 colon
SF-539 CNS = test system: SF-539 CNS

| SMILES | TGI (A549 NSCLC) | TGI (NCI-H460 lung) | TGI (MOLT-4 leukemia) | TGI (PC-3 prostate) | TGI (DU-145 prostate) | TGI (NCI-H226 lung) | TGI (TK-10 renal) | TGI (HOP-62 NSCLC) | TGI (SW-620 colon) | TGI (SF-539 CNS) | GI50 (A549 NSCLC) | GI50 (NCI-H460 lung) | GI50 (MOLT-4 leukemia) | GI50 (PC-3 prostate) | GI50 (DU-145 prostate) | GI50 (NCI-H226 lung) | GI50 (TK-10 renal) | GI50 (HOP-62 NSCLC) | GI50 (SW-620 colon) | GI50 (SF-539 CNS) |
| --- | --- | --- | --- | --- | --- | --- | --- | --- | --- | --- | --- | --- | --- | --- | --- | --- | --- | --- | --- | --- |
| C=CCNC(=O)CN(CC(=O)OC)C1CCCCC1N(CC(=O)OC)CC(=O)OC (stereo not given) | > 100 µM | > 100 µM | > 100 µM | > 100 µM | > 100 µM | > 100 µM | > 100 µM | > 100 µM | > 100 µM | > 100 µM |  |  |  |  |  |  |  |  |  |  |
| O=C(O)C12CC3CC(C1)C2C=C3P(=O)(O)O (stereo not given) |  | > 100 µM | > 100 µM |  |  | > 100 µM | > 100 µM | > 100 µM | > 100 µM |  |  |  |  |  |  |  |  |  |  |  |
| COc1cc(/C=C/C2=C(C#N)C(=O)OC2(C)C)ccc1O | > 100 µM | > 100 µM | > 100 µM |  |  | > 100 µM | > 100 µM | > 100 µM | > 100 µM |  |  |  |  |  |  |  |  |  |  |  |
| Nc1n[nH]c(CCCCCCCc2nc(N)n[nH]2)n1 |  | > 100 µM | > 100 µM |  |  |  | > 100 µM | > 100 µM |  | > 100 µM |  |  |  |  |  |  |  |  |  |  |
| Cc1c(C2=NN=C(N=Nc3c(O)cccc3O)/C2=C/c2ccccc2)c(=O)n(-c2ccccc2)n1C | > 100 µM | > 100 µM | > 100 µM |  |  | > 100 µM |  | > 100 µM | > 100 µM | > 100 µM |  |  |  |  |  |  |  |  |  |  |
| CC(C)=CC(=O)OC1C2C(C)=CC(O)C(O)C2(C)C2C3(O)OCC24C(CC(=O)OC14)C(C)C3O (stereo not given) | 9.68 µM | 0.337 µM | 1.31 µM |  |  | 0.388 µM |  | 0.683 µM | 4.81 µM | 0.187 µM |  |  |  |  |  |  |  |  |  |  |
| Cc1cn(C2CC(O)C(Cn3nncc3Cn3ncc(=O)[nH]c3=O)O2)c(=O)[nH]c1=O (stereo not given) | > 100 µM |  | > 100 µM | > 100 µM | > 100 µM | > 100 µM | > 100 µM | > 100 µM | > 100 µM | > 100 µM |  |  |  |  |  |  |  |  |  |  |
| Cc1cccc(CNc2ncnc3[nH]ncc23)c1 | > 100 µM | > 100 µM | > 100 µM | > 100 µM | > 100 µM | > 100 µM | > 100 µM | > 100 µM | > 100 µM | > 100 µM |  |  |  |  |  |  |  |  |  |  |
| O=C1c2ccccc2C(=O)c2c1cc1c(c2[N+](=O)[O-])OCO1 | 21.9 µM | 7.06 µM | > 100 µM | 4.66 µM | 8.43 µM | 7.16 µM | 6.39 µM | 5.19 µM | 11.5 µM | 6.31 µM | 4.94 µM | 2.11 µM | 0.794 µM | 1.29 µM | 2.58 µM | 2.06 µM | 2.38 µM | 1.74 µM | 0.68 µM | 1.71 µM |
| O=C(O)CCCc1ccccc1 | > 1000 µM | 295 µM and > 1000 µM | 394 µM and > 1000 µM | > 1000 µM | > 1000 µM | 917 µM and > 1000 µM | > 1000 µM | > 1000 µM | > 1000 µM | 533 µM and > 1000 µM | 322 µM and > 1000 µM | > 1000 µM | > 1000 µM | 364 µM and > 1000 µM | > 1000 µM | 253 µM and > 1000 µM | 285 µM and > 1000 µM | 235 µM and > 1000 µM | 333 µM and > 1000 µM | > 1000 µM |
| CCCCCCCCCCCCC(O)C(=O)O (stereo not given) | > 100 µM | > 100 µM | > 100 µM | > 100 µM | > 100 µM |  | > 100 µM | > 100 µM | > 100 µM | > 100 µM |  |  |  |  |  |  |  |  |  |  |
